Measurements: the supplement of paper PMC10307832

What was measured:
Experiment in all cases: relative viability (nuclei count vs DMSO), 5 days (fraction); higher = more cells survive
Gemcitabine + Tozasertib = compound: Nc1ccn([C@@H]2O[C@H](CO)[C@@H](O)C2(F)F)c(=O)n1 [Gemcitabine] + Cc1cc(Nc2cc(N3CCN(C)CC3)nc(Sc3ccc(NC(=O)C4CC4)cc3)n2)n[nH]1 [Tozasertib] (partner 0.1 µM)
Procedure, shortened: (§1)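 Nuclei were stained with Hoechst during a one-step fixation (final 0.05% Triton X-100, 1% formaldehyde, 1 ug/ml Hoechst) carried out 5 days after dosing, then counted on 4× images. The cells, lung cancer lines in 1536-well plates, had been dosed by pin tool the day after seeding with one drug alone or a fixed anchor-drug dose plus five library-drug doses (not always all listed) in √10 steps. Relative viability is the nuclei count in treated wells divided by that in vehicle wells, and each value is the median of duplicate plates.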

Gemcitabine + OSI-027 = compound: Nc1ccn([C@@H]2O[C@H](CO)[C@@H](O)C2(F)F)c(=O)n1 [Gemcitabine] + COc1cccc2cc(-c3nc([C@H]4CC[C@H](C(=O)O)CC4)n4ncnc(N)c34)[nH]c12 [OSI-027] (partner 0.5 µM)
Procedure, shortened: as §1

Gemcitabine + Linsitinib = compound: Nc1ccn([C@@H]2O[C@H](CO)[C@@H](O)C2(F)F)c(=O)n1 [Gemcitabine] + C[C@]1(O)C[C@@H](c2nc(-c3ccc4ccc(-c5ccccc5)nc4c3)c3c(N)nccn32)C1 [Linsitinib] (partner 1 µM)
Procedure, shortened: as §1

Gemcitabine + Crizotinib = compound: Nc1ccn([C@@H]2O[C@H](CO)[C@@H](O)C2(F)F)c(=O)n1 [Gemcitabine] + C[C@@H](Oc1cc(-c2cnn(C3CCNCC3)c2)cnc1N)c1c(Cl)ccc(F)c1Cl [Crizotinib] (partner 1 µM)
Procedure, shortened: as §1

Cell Line | relative viability (Gemcitabine + Tozasertib; first compound 0.001 µM) | relative viability (Gemcitabine + Tozasertib; first compound 0.003162 µM) | relative viability (Gemcitabine + Tozasertib; first compound 0.01 µM) | relative viability (Gemcitabine + Tozasertib; first compound 0.03162 µM) | relative viability (Gemcitabine + Tozasertib; first compound 0.1 µM) | relative viability (Gemcitabine + OSI-027; first compound 0.001 µM) | relative viability (Gemcitabine + OSI-027; first compound 0.003162 µM) | relative viability (Gemcitabine + OSI-027; first compound 0.01 µM) | relative viability (Gemcitabine + OSI-027; first compound 0.03162 µM) | relative viability (Gemcitabine + OSI-027; first compound 0.1 µM) | relative viability (Gemcitabine + Linsitinib; first compound 0.001 µM) | relative viability (Gemcitabine + Linsitinib; first compound 0.003162 µM) | relative viability (Gemcitabine + Linsitinib; first compound 0.01 µM) | relative viability (Gemcitabine + Linsitinib; first compound 0.03162 µM) | relative viability (Gemcitabine + Linsitinib; first compound 0.1 µM) | relative viability (Gemcitabine + Crizotinib; first compound 0.001 µM) | relative viability (Gemcitabine + Crizotinib; first compound 0.003162 µM) | relative viability (Gemcitabine + Crizotinib; first compound 0.01 µM) | relative viability (Gemcitabine + Crizotinib; first compound 0.03162 µM) | relative viability (Gemcitabine + Crizotinib; first compound 0.1 µM)
NCI-H441 | 0.569 | 0.394 | 0.25 | 0.196 | 0.197 | 0.583 | 0.28 | 0.247 | 0.165 | 0.201 | 0.513 | 0.339 | 0.102 | 0.11 | 0.128 | 0.82 | 0.286 | 0.167 | 0.121 | 0.129
NCI-H1793 | 0.421 | 0.507 | 0.202 | 0.133 | 0.12 | 0.236 | 0.286 | 0.205 | 0.159 | 0.116 | 1 | 0.857 | 0.539 | 0.16 | 0.135 | – | – | – | – | –
NCI-H23 | 0.688 | 0.225 | 0.114 | 0.129 | 0.114 | 0.544 | 0.272 | 0.127 | 0.151 | 0.108 | 0.447 | 0.226 | 0.123 | 0.11 | 0.118 | 0.297 | 0.206 | 0.12 | 0.131 | 0.152
HARA | 0.12 | 0.103 | 0.095 | 0.0811 | 0.042 | 0.734 | 0.68 | 0.388 | 0.175 | 0.0508 | 1.05 | 1.01 | 0.832 | 0.293 | 0.0949 | 0.975 | 1.02 | 1.02 | 0.3 | 0.124
NCI-H1792 | – | – | – | – | – | 0.639 | 0.486 | 0.285 | 0.227 | 0.154 | 0.561 | 0.363 | 0.131 | 0.109 | 0.0721 | 1.05 | 0.897 | 0.222 | 0.0949 | 0.0981
NCI-H1703 | – | – | – | – | – | – | – | – | – | – | 0.774 | 0.228 | 0.103 | 0.101 | 0.132 | 0.588 | 0.208 | 0.11 | 0.125 | 0.0932
NCI-H1648 | 0.593 | – | 0.407 | 0.251 | 0.198 | 0.245 | – | 0.245 | 0.228 | 0.276 | – | – | – | – | – | – | – | – | – | –
CAL-12T | 0.292 | 0.35 | 0.29 | 0.22 | 0.129 | 0.645 | 0.47 | 0.451 | 0.152 | 0.13 | 0.777 | 0.859 | 0.567 | 0.256 | 0.169 | 0.684 | 0.745 | 0.662 | 0.227 | 0.104
NCI-H727 | 0.571 | 0.443 | 0.352 | 0.431 | 0.321 | 0.586 | 0.409 | 0.353 | 0.327 | 0.297 | 0.325 | 0.277 | 0.236 | 0.219 | 0.213 | 0.771 | 0.32 | 0.243 | 0.266 | 0.219
NCI-H2085 | 0.729 | 0.858 | 0.731 | 0.562 | 0.443 | 0.896 | 0.75 | 0.479 | 0.414 | 0.189 | 0.795 | 0.967 | 0.705 | 0.57 | 0.404 | 0.74 | 0.828 | 0.699 | 0.585 | 0.4
NCI-H1395 | 0.676 | 0.674 | 0.429 | 0.367 | 0.334 | 0.705 | 0.493 | 0.391 | 0.313 | 0.303 | 1.02 | 0.814 | 0.565 | 0.407 | 0.334 | – | – | – | – | –
SW 900 | 0.462 | 0.241 | 0.127 | 0.0969 | 0.109 | 0.526 | 0.241 | 0.13 | 0.0871 | 0.0793 | – | – | – | – | – | – | – | – | – | –
NCI-H460 | 0.535 | – | 0.299 | 0.0246 | 0.0096 | 0.838 | 0.76 | 0.26 | 0.0217 | 0.0185 | 0.714 | 0.878 | 0.0967 | 0.0138 | 0.0057 | 1.12 | 0.894 | 0.528 | 0.0182 | 0.0089
A549 | – | – | – | – | – | – | – | – | – | – | 0.705 | 0.356 | 0.0342 | 0.0143 | 0.0157 | 0.858 | 0.377 | 0.229 | 0.0341 | 0.0206
IA-LM | – | – | – | – | – | – | – | – | – | – | 0.768 | 0.461 | 0.324 | 0.149 | 0.0467 | – | 0.615 | 0.254 | 0.0992 | 0.0456
EKVX | 0.456 | 0.376 | 0.257 | 0.12 | 0.106 | 0.773 | 0.719 | 0.391 | 0.147 | 0.122 | 1.07 | 0.727 | 0.541 | 0.188 | 0.118 | 1 | 0.872 | 0.387 | 0.169 | 0.159
ChaGo-K-1 | 0.217 | 0.216 | 0.184 | 0.181 | 0.155 | 0.516 | 0.458 | 0.212 | 0.185 | 0.164 | – | – | – | – | – | 1.12 | 0.961 | 0.578 | 0.36 | 0.314
